Assay results reported in US10112944B2, “Heterocyclic compounds useful as inhibitors of TNF” (BRISTOL-MYERS SQUIBB COMPANY, priority 2015, dated 2018).

Biological target: TNFα (Homo sapiens (Human), UniProt P01375)
Test: TNF induced HEK-Blue assay
Assay type: cell-based
Details: HEK-Blue-CD40L cells, TNFα 0.5 ng/ml, NF-κB-driven secreted alkaline phosphatase reporter, 18 h
Procedure: TNF or CD40L-Induced HEK-Blue Assay
Test compounds serially diluted in DMSO were plated in an assay plate (Labcyte, Cat. #LP-0200) at final concentrations ranging from 0.004 μM to 25 μM. TNFα (final concentration 0.5 ng/ml) or CD40L (final concentration 30 ng/ml) in assay buffer [DMEM, 4.5 g/l glucose (Gibco, Cat. 21063-029), 10% FBS (Sigma, F4135), 1% Penicillin-Streptomycin (Gibco, Cat. 15140-122), 1% Anti-Anti (Gibco, Cat. 15240-112) and 2 mM L-glutamine (Gibco, Cat. 25030-081)] was then added to the assay plate. After a 30 minute pre-incubation at 37° C. and 5% CO2, HEK-Blue-CD40L cells (InvivoGen, Cat. Code hkb-cd40) containing a NF-κB-driven secreted alkaline phosphatase reporter gene were seeded into the assay plate at a density of 20,000 cells per well. This plate was then incubated for 18 h at 37° C. and 5% CO2. Secreted alkaline phosphatase expression was measured using QUANTI-Blue (InvivoGen, Cat. Code rep-qbl) according to manufacturer's specifications and the assay plate was read on a PerkinElmer Envision at 620 nm.
Inhibition data for the test compound over a range of concentrations was plotted as percentage inhibition of the test compound (100%=maximum inhibition). IC50 values were determined after correcting for background [(sample read−mean of low control)/(mean of high control−mean of low control)] where by the low control is DMSO without stimulation and high control is DMSO with stimulation. The IC50 is defined as the concentration of test compound which produces 50% inhibition and was quantified using the 4 parameter logistic equation to fit the data.

TNFα, sequence (P01375 77-233): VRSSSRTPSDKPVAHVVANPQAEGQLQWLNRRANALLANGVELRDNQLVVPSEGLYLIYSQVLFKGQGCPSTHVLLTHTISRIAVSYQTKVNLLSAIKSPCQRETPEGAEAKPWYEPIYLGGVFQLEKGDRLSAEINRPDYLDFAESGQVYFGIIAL

Q: With CCc1ccccc1N1CCCc2nc3ccc(-c4ccc(OC)nc4)cn3c21 [Example 28, 1-(2-Ethylphenyl)-8-(6-methoxypyridin-3-yl)-1,2,3,4-tetrahydroimidazo [1,2-a:5,4-b′]dipyridine] as the molecule, how does the IC50 read?
A: The IC50 was less than 1 µM.

Q: COc1ccc(-c2ccc3nc4c(n3c2)N(c2ccc(C)cc2C)CCC4)cn1 [Example 30, 1-(2,4-Dimethylphenyl)-8-(6-methoxypyridin-3-yl)-1,2,3,4-tetrahydroimidazo[1,2-a:5,4-b′]dipyridine] was tested. Which IC50 did it give?
A: Its IC50 is 1 to 10 µM.

Q: How did the IC50 turn out when COc1ccc(-c2ccc3nc4c(n3c2)N(c2ccccc2Cl)CCC4)cn1 [Example 31, 1-(2-Chlorophenyl)-8-(6-methoxypyridin-3-yl)-1,2,3,4-tetrahydroimidazo[1,2-a:5,4-b′]dipyridine] was run?
A: The IC50 was less than 1 µM.

Q: With COc1ccc(-c2ccc3nc4c(n3c2)N(c2cc(Cl)ccc2C)CCC4)cn1 [Example 32, 1-(5-Chloro-2-methylphenyl)-8-(6-methoxypyridin-3-yl)-1,2,3,4-tetrahydroimidazo[1,2-a:5,4-b′]dipyridine] as the molecule, how does the IC50 read?
A: The IC50 was less than 1 µM.

Q: CC(C)(O)c1ncc(-c2ccc3nc4c(n3c2)N(c2ccccc2OC(F)F)CCC4)cn1 [Example 34, 2-(5-(1-(2-(Difluoromethoxy)phenyl)-1,2,3,4-tetrahydroimidazo[1,2-a:5,4-b′]dipyridin-8-yl)pyrimidin-2-yl)propan-2-ol] was tested. Which IC50 did it give?
A: Its IC50 is less than 1 µM.

Q: How did the IC50 turn out when CC(C)(O)c1ccc(-c2ccc3nc4c(n3c2)N(c2ccccc2OC(F)F)CCC4)cc1 [Example 35, 2-(4-(1-(2-(Difluoromethoxy)phenyl)-1,2,3,4-tetrahydroimidazo[1,2-a:5,4-b′]dipyridin-8-yl)phenyl)propan-2-ol] was run?
A: Its IC50 is less than 1 µM.

Q: For Cc1ccc(C)c(N2CCCc3nc4ccc(-c5ccc(C(C)(C)O)cc5)cn4c32)c1 [Example 36, 2-(4-(1-(2,5-Dimethylphenyl)-1,2,3,4-tetrahydroimidazo[1,2-a:5,4-b′]dipyridin-8-yl)phenyl)propan-2-ol], which IC50 is on record?
A: The IC50 was 1 to 10 µM.

Q: Which IC50 does the source give for COc1ccc(-c2ccc3nc4c(n3c2)N(c2cc(C)ccc2C)CCC4C)cn1 (stereo not drawn) [Example 37, 1-(2,5-Dimethylphenyl)-8-(6-methoxypyridin-3-yl)-4-methyl-1,2,3,4-tetrahydroimidazo[1,2-a:5,4-b′]dipyridine] here?
A: The IC50 was less than 1 µM.

Q: Which IC50 does the source give for COc1ccc(-c2ccc3nc4c(n3c2)N(c2ccccc2OC(F)F)CCC4C)cn1 (stereo not drawn) [Example 38, 1-(2-(Difluoromethoxy)phenyl)-8-(6-methoxypyridin-3-yl)-4-methyl-1,2,3,4-tetrahydroimidazo[1,2-a:5,4-b′]dipyridine] here?
A: The IC50 was less than 1 µM.

Q: How did the IC50 turn out when Cc1ccc(C)c(N2CCC(C)c3nc4ccc(-c5cnn(C)c5)cn4c32)c1 (stereo not drawn) [Example 39, 1-(2,5-Dimethylphenyl)-4-methyl-8-(1-methyl-1H-pyrazol-4-yl)-1,2,3,4-tetrahydroimidazo[1,2-a:5,4-b′]dipyridine] was run?
A: The IC50 was less than 1 µM.

Q: How did the IC50 turn out when CC1CCN(c2ccccc2OC(F)F)c2c1nc1ccc(-c3cnn(C)c3)cn21 (stereo not drawn) [Example 40, 1-(2-(Difluoromethoxy)phenyl)-4-methyl-8-(1-methyl-1H-pyrazol-4-yl)-1,2,3,4-tetrahydroimidazo[1,2-a:5,4-b′]dipyridine] was run?
A: Its IC50 is less than 1 µM.

Q: How did the IC50 turn out when Cc1ccc(C)c(N2CCCc3nc4c(C)c(C)c(-c5cnc(N6CCOCC6)nc5)cn4c32)c1 [Example 41, 4-(5-(1-(2,5-Dimethylphenyl)-6,7-dimethyl-1,2,3,4-tetrahydroimidazo [1,2-a:5,4-b′]dipyridin-8-yl)pyrimidin-2-yl)morpholine] was run?
A: Its IC50 is 1 to 10 µM.
